Test results reported in patent US7332522B2, “Liver function protecting or ameliorating agent” (Kyowa Hakko Kogyo Co., Ltd., priority 2001, dated 2008).
Read-outs that look alike come from different tables or passages of the source.

Legend:
[1] = test system: rat skin passive anaphylaxis; details: oral administration, cited from earlier work
mast cells = details: at 100 μM; induced by compound 48/80 or calcium ionophore A23187; cited from earlier work
[2] = iron rhodanate method; cited from earlier work
rat liver microsome = details: cited from earlier work
[3] = test system: rat gastric ulcer induced by ethanol hydrochloride; details: 75 mg/kg, oral administration; cited from earlier work
leukocyte = details: in vitro; cited from earlier work
[4] = test system: Galactosamine-induced Rat Hepatopathy; test: Suppression of galactosamine-induced rat hepatopathy, GPT level in serum; format: in vivo, Male Wistar white rats; details: 15 days, serum 22 h after galactosamine 350 mg/kg i.p., relative to Comparative Example 1 feed = 100%, average ± standard error
Protocol: Male Wistar white rats (150±20 g, purchased from Japan SLC) were kept for at least 3 days under a fixed condition (temperature: 24±2° C., humidity: 60±5%, light and dark interval: 12 hours) for adaptation, and then fed respectively with the feeds produced in Examples 4-8 and the feed produced in Comparative Example 1 for 15 days. On the 14th day, 350 mg/kg of galactosamine (dissolved in physiological saline at a concentration of 35 mg/ml, and adjusted to pH 7.1) was intraperitoneally administered to each rat. Twenty-two hours after the administration of galactosamine, each of the rats was subjected to laparotomy under anesthesia with Nembutal and blood was collected.
Using thus obtained blood samples, blood GPT activity was measured as an indication of a liver function in the following manner. The collected blood was coagulated and separated by centrifugation to obtain a serum. The GPT level in the serum was measured using Fuji Drychem System 3500 (manufactured by Fuji Photo Film Co., Ltd.) with thus obtained serum. The GPT activity of each test group was calculated as the relative value (%) from the value obtained for each Example based on the value obtained for the feed in Comparative Example 1 expressed as 100%. The value is expressed in terms of average value±standard error and the statistical test of significance was carried out by Student's T-test.

[5] = 200 mg/kg; cited from earlier work
hyaluronidase = details: cited from earlier work
[6] = test system: Staphylococcus epidemidis; details: at 1000 ppm; cited from earlier work
Staphylococcus aureus = details: at 1000 ppm; cited from earlier work

## COc1ccc(C2Cc3cccc(OC4OC(CO)C(O)C(O)C4O)c3C(=O)O2)cc1O (stereo not shown) [phyllodulcin 8-O-glucoside]
[1]; 300 and 500 mg/kg
  suppression of rat skin passive anaphylaxis: suppress
Mast cells
  suppression of release of histamine from mast cells: not suppressed

## O=C1OC(c2ccc(O)cc2)Cc2cccc(OC3OC(CO)C(O)C(O)C3O)c21 (stereo not shown) [hydrangenol 8-O-glucoside]
[1]; 300 and 500 mg/kg
  suppression of rat skin passive anaphylaxis: suppress
Mast cells
  suppression of release of histamine from mast cells: not suppressed

## O=C1OC(c2ccc(O)cc2)Cc2cccc(O)c21 (stereo not shown) [hydrangenol]
[2]
  suppressive activity on linoleic acid oxidation: weak suppressive activity
Rat liver microsome
  suppressive activity on NADPH dependent lipid peroxidation: weak suppressive activity
[3]
  suppression of rat gastric ulcer induced by ethanol hydrochloride: do not suppress
leukocyte
  concentration active in differentiation-inducing activity on leukocyte: 300 µM
[4]; feed of Example 7, hydrangenol 0.324% in feed
  GPT activity (%): 64.6 ± 116.5%
[4]; feed of Example 8, hydrangenol 0.108% in feed
  GPT activity (%): 27.8 ± 45.4%
[5]
  cholagogic activity: do not exhibit this activity
hyaluronidase
  hyaluronidase inhibitory activity: hyaluronidase inhibitory activity
[1]; 500 mg/kg
  suppression of rat skin passive anaphylaxis: suppress
Mast cells
  suppression of release of histamine from mast cells: not suppressed

## O=C1O[C@@H]([C@@H](O)c2ccc(O)cc2)c2cccc(O)c21 [hydramacrophyllol B, reference compound]
Mast cells
  suppression of release of histamine from mast cells: not suppressed

## COc1ccc([C@H]2Cc3cccc(O)c3C(=O)O2)cc1O [phyllodulcin]
[2]
  suppressive activity on linoleic acid oxidation: more potent suppressive activity than α-tocopherol or BHA
[6]
  proliferation suppressive activity: proliferation suppressive activity
Rat liver microsome
  suppressive activity on NADPH dependent lipid peroxidation: suppressive activity at a similar level to α-tocopherol
[3]
  suppression of rat gastric ulcer induced by ethanol hydrochloride: do not suppress
leukocyte
  concentration active in differentiation-inducing activity on leukocyte: 300 µM
[4]; feed of Example 4, phyllodulcin 0.366% in feed
  GPT activity (%): 11.8 ± 18.0%
[4]; feed of Example 5, phyllodulcin 0.122% in feed
  GPT activity (%): 54.7 ± 32.2%
[4]; feed of Example 6, phyllodulcin 0.037% in feed
  GPT activity (%): 52.7 ± 59.9%
[5]
  cholagogic activity: do not exhibit this activity
[1]; 300 and 500 mg/kg
  suppression of rat skin passive anaphylaxis: does not suppress
Staphylococcus aureus
  proliferation suppressive activity: proliferation suppressive activity
Mast cells
  suppression of release of histamine from mast cells: not suppressed

## O=C1O[C@H]([C@@H](O)c2ccc(O)cc2)c2cccc(O)c21 [hydramacrophyllol A, reference compound]
Mast cells
  suppression of release of histamine from mast cells: not suppressed

## O=c1oc(-c2ccc(O)c(O)c2)cc2cccc(O)c12 [thunberginol A]
leukocyte
  concentration active in differentiation-inducing activity on leukocyte: 100 µM
[1]; 300 and 500 mg/kg
  suppression of rat skin passive anaphylaxis: suppress

## O=C1O/C(=C\c2ccc(O)c(O)c2)c2cccc(O)c21 [thunberginol F, reference compound]
[1]; 300 and 500 mg/kg
  suppression of rat skin passive anaphylaxis: suppress
